In the assay the test system is type 2 diabetic db/db mice. In words: Micro-CT of ilium (femur) and lumbar vertebra 5, db/db mice. Type of assay: in vivo. Particulars: adiporon 30 mg/kg/day, 4 weeks. The method, then:
A leptin receptor-defective type 2 diabetic animal model (db/db mice) and a normal control group (db/m mice) were used, and the experiment was performed by dividing into 4 groups as follows: non-diabetic control group (dm cont, n=8), non-diabetic adiporon treatment group (dm+AdipoR, n=8), diabetic control group (db cont, n=8) and diabetic adiporon treatment group (db+AdipoR, n=8). The control group was fed a normal diet, and the adiporon treatment group was fed a diet comprising adiporon (30 mg/kg/day) for 4 weeks from 16 weeks of age. During the experiment, body weight was measured every week, fasting blood glucose was measured using an Accu-Chek meter (Roche Diagnostics, St. Louis, MO) every 2 weeks after blood was collected from the tail vein, and glycated hemoglobin (HbA1c) was measured every 4 weeks using a […] automatic analyzer (Bayer healthcare LLC, IN) after blood was collected from the tail vein. The temperature and humidity of the breeding room were maintained at 20˜25° C. and 50˜60%, respectively, and the lights were turned on and off at 12-hour intervals. The imaging was performed with micro-CT (Skyscan 1172, Belgium), the tube voltage was 60 kV, the tube current was 167 uA, 0.5 mm aluminum filtration was used, and the pixel size was 5.9 μm. For the shooting angle, a 2-dimensional image was reconstructed with Nrecon Reconstruction (Skyscan, Belgium). For 3D image analysis, CTAn (Skyscan, Belgium) was used, images were obtained by rotating 360°, and exposure time was 440 ms. A total of 7 types of indicators were used in this invention. BMD (bone mineral density, bone density) was measured based on phantoms of 0.25 g/cm^3 and 0.75 g/cm^3. BV/TV (Bone volume/Total volume, percent bone volume, %) is the ratio of voxels representing the solid region out of the total voxels present in the binarized and surfaced volume of interest, and it means the ratio occupied by bone trabeculae within the volume of interest, and i.s (Interception surfaces, mm2) means the generation of new bone. […] BS/BV (Bone surface/Bone volume, bone specific surface, mm^−1) is the ratio of the voxel surface area to the number of voxels in the binarized solid region within the volume of interest and it means the ratio of the surface area of the trabecular bone to the volume of the trabecular bone. The lower the value, the higher the bone strength. Tb.Th (trabecular thickness, mm) is obtained by averaging the diameters of these spheres, after placing a sphere comprising the corresponding voxel for each voxel representing the solid region within the volume of interest so that the size of the sphere is the largest that includes only the solid region and it means the average thickness of the trabecular bone. […] In the same way, using Tb.Sp (trabecular separation, mm), the average length between trabecular lines and Tb.N (trabecular number, mm^−1) were used to obtain the average number of trabecular lines.

Regarding `Cl.O=C(COc1ccc(C(=O)c2ccccc2)cc1)NC1CCN(Cc2ccccc2)CC1` [adiporon], where the note is “ilium”, the “Bone mineral density index (micro-CT)” value was “significantly increased and improved”; the “Bone surface index (micro-CT)” value is “significantly increased and improved”; the “Bone volume index (micro-CT)” value was “significantly increased and improved”; the “Trabecular number index (micro-CT)” value was “significantly increased and improved”. Further, the “Trabecular thickness index (micro-CT)” value (ilium) was “significantly increased and improved”. Where the note is “vertebrae (lumbar vertebrae 5)”, the “Trabecular thickness (micro-CT)” value is “increased and improved”.

Values taken from US20240016788A1, “PHARMACEUTICAL COMPOSITION FOR PREVENTING OR TREATING DIABETIC AND POSTMENOPAUSAL OSTEOPOROSIS, CONTAINING ADIPORON” (PnP Biopharm Co., Ltd., priority 2020, published 2024).
